pIC50: −log10 of the molar value.
Key:
[1] = target: T1, GppNHp-KRAS G12D mutant protein (Homo sapiens, UniProt P01116, G12D); experiment: Differential scanning fluorimetry (DSF) binding affinity to GppNHp-KRAS G12D mutant protein; settings: DSF thermal shift, 10 μM compound, 4 μg KRAS protein, 50 mM HEPES (pH 7.5)
T1 construct: purchased Daegu Gyeongbuk Medical Innovation Foundation (DGMIF), made to order
Method in brief: (§1)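 Thermal shift ΔTm was measured at 10 μM compound over a 25–99 °C ramp (0.05 °C/s), read at 580 nm ex/623 nm em with SYPRO Orange (2×). The protein (4 μg) was preincubated with compound for 30 min at room temperature, in 50 mM HEPES pH 7.5 for GppNHp-KRAS G12D or in kit buffer for GDP-KRAS G12D.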

[2] = test system: KRAS G12D mutant pancreatic cancer cell line AsPC-1; experiment: Cell viability assay using KRAS G12D mutant cells (AsPC-1, 3D culture, celltiter-glo 3D); format: cell-based; settings: Homo sapiens, ASPC1, 5th day after compound treatment
Experimental: Test Example 3: Cell Viability Assay Using KRAS G12D Mutant Cells
The KRAS G12D mutant pancreatic cancer cell line AsPC-1 was obtained from the Korean Cell Line Bank (KCLB) and maintained in 100-mm dishes or T75 (75 cm^2) flasks using RPM11640+10% fetal bovine serum (FBS)+1% Penicillin-Streptomycin medium. The cells were cultured at 37° C. with 5% CO2. The number of viable cells was counted using Countess (Invitrogen).
When AsPC-1 cells reached 85-100% confluence in the flask, the cells were harvested using 1× trypsin/EDTA solution, and seeded into a 96-well plate for 3D culture at 1000 cells/100 μL/well. The next day, the compounds were diluted ⅕ with DMSO from 10 μM or 50 μM to 0.0001 μM or 0.0006 μM and treated 1:1 (v/v) in the plate where the cells were seeded.
Cell culture was terminated on the 5th day after compound treatment, and cell viability at each concentration was measured using the celltiter-glo 3D cell viability assay kit.
Cell viability assays were normalized to 100% for the DMSO-treated group and expressed as a percentage of the number of viable cells when treated with the compound.
Cell viability %=(average RLU of group treated with test substance−average RLU of untreated group)/(average RLU of group treated with DMSO−average RLU of untreated group)×100
The data were modeled using GraphPad Prism 9 (GraphPad Software) by applying a nonlinear regression curve fit with a four-parameter sigmoidal dose-response curve to determine cell viability as a function of compound concentration. The 50% inhibitory concentration (IC50) corresponds to the concentration at which the curve intersects the midpoint of cell viability. The results of the inhibitory effect of the compounds according to one embodiment of the present application on the viability of KRAS G12D mutant cells are presented in Table 4.

[3] = target: T2, GDP-KRAS G12D mutant protein (Homo sapiens, UniProt P01116, G12D); experiment: Differential scanning fluorimetry (DSF) binding affinity to GDP-KRAS G12D mutant protein; settings: DSF thermal shift, 10 μM compound, 4 μg KRAS protein
T2 construct: purchased Daegu Gyeongbuk Medical Innovation Foundation (DGMIF), made to order
Method in brief: as §1

[4] = test system: ERK phosphorylation (pERK) induced by KRAS G12D mutation; experiment: Inhibitory activity against ERK phosphorylation (pERK) induced by KRAS G12D mutation, immunofluorescence assay in AsPC-1 cells; format: cell-based; settings: Homo sapiens, ASPC1, 3 h drug treatment, pERK (Thr202/Tyr204) signal normalized to DAPI
Method in brief: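 AsPC-1 cells attached 16 h, then treated 3 h with 3-fold dilutions from 10 μM top. Fixed, permeabilized, immunostained for pERK (Thr202/Tyr204) with Alexa 488 secondary; high-content imaging, signal normalized to DAPI and to DMSO, IC50 from four-parameter fit.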

C#Cc1c(F)ccc2cc(O)cc(-c3cc4nc(OC[C@@]56CCCN5CC(=C(F)F)C6)nc(N5C[C@H]6CC[C@@H](C5)N6)c4n4ccnc34)c12 [Example 37, 4-(1-((1R,5S)-3,8-diazabicyclo[3.2.1]octan-3-yl)-3-(((S)-2-(difluoromethylene)tetrahydro-1H-pyrrolizin-7a(5H)-yl)methoxy)imidazo[1′,2′:1,6]pyrido[3,2-d]pyrimidin-6-yl)-5-ethynyl-6-fluoronaphthalen-2-ol]
GppNHp-KRAS G12D (ΔTmD, ° C.) [1]: 5.76 °C | pIC50 [2]: 7.54 | GDP-KRAS G12D (ΔTmD, ° C.) [3]: 11.53 °C | pIC50 [4]: 7.92

C#Cc1c(F)ccc2cc(N)cc(-c3cc4nc(OC[C@@]56CCCN5C/C(=C\F)C6)nc(N5[C@@H]6CC[C@H]5CNC6)c4n4ccnc34)c12 [Example 38, 4-(1-((1R,5S)-3,8-diazabicyclo[3.2.1]octan-8-yl)-3-(((S,Z)-2-(fluoromethylene)tetrahydro-1H-pyrrolizin-7a(5H)-yl)methoxy)imidazo[1′,2′:1,6]pyrido[3,2-d]pyrimidin-6-yl)-5-ethynyl-6-fluoronaphthalen-2-amine]
GppNHp-KRAS G12D (ΔTmD, ° C.) [1]: 6.65 °C | pIC50 [2]: 7.92 | GDP-KRAS G12D (ΔTmD, ° C.) [3]: 9.61 °C | pIC50 [4]: 7.82

C#Cc1c(F)ccc2cc(O)cc(-c3cc4nc(OC[C@]56CC(=C)CN5C[C@@H](F)C6)nc(N5CC6CCC(C5)N6)c4n4ccnc34)c12 [Example 39, 4-(1-((1R,5S)-3,8-diazabicyclo[3.2.1]octan-8-yl)-3-(((2S,7aR)-2-fluoro-6-methylenetetrahydro-1H-pyrrolizin-7a(51H)-yl)methoxy)imidazo[1′,2′:1,6]pyrido[3,2-d]pyrimidin-6-yl)-5-ethynyl-6-fluoronaphthalen-2-ol]
GppNHp-KRAS G12D (ΔTmD, ° C.) [1]: 5.61 °C | pIC50 [2]: 7.04 | GDP-KRAS G12D (ΔTmD, ° C.) [3]: 8.87 °C | pIC50 [4]: 7.12

Cc1cc2c(o1)c(-c1cc(O)cc3ccccc13)cc1nc(OC[C@@]34CCCN3C[C@H](F)C4)nc(N3C[C@H]4CC[C@@H](C3)N4)c12 [Example 41, 4-(1-((1R,5S)-3,8-diazabicyclo[3.2.1]octan-3-yl)-3-(((2R,7aS)-2-fluorotetrahydro-1H-pyrrolizin-7a(5H)-yl)methoxy)-8-methylfuro[3,2-f]quinazolin-6-yl)naphthalen-2-ol]
GppNHp-KRAS G12D (ΔTmD, ° C.) [1]: 0.87 °C | pIC50 [2]: 5.99 | GDP-KRAS G12D (ΔTmD, ° C.) [3]: 5.46 °C | pIC50 [4]: 6.05

C#Cc1c(F)ccc2cc(O)cc(-c3cc4nc(OC[C@@]56CCCN5C[C@H](F)C6)nc(N5C[C@H]6CC[C@@H](C5)N6)c4c4cc(C)oc34)c12 [Example 42, 4-(1-((1R,5S)-3,8-diazabicyclo[3.2.1]octan-3-yl)-3-(((2R,7aS)-2-fluorotetrahydro-1H-pyrrolizin-7a(5H)-yl)methoxy)-8-methylfuro[3,2-f]quinazolin-6-yl)-5-ethynyl-6-fluoronaphthalen-2-ol]
GppNHp-KRAS G12D (ΔTmD, ° C.) [1]: 5.75 °C | pIC50 [2]: 6.98 | GDP-KRAS G12D (ΔTmD, ° C.) [3]: 10.96 °C | pIC50 [4]: 7.19

C#Cc1c(F)ccc2cc(O)cc(-c3c(F)c4nc(OC[C@@]56CCCN5C[C@H](F)C6)nc(N5CC6CCC(C5)N6)c4c4cc(C)oc34)c12 [Example 44, 4-(1-((1R,5S)-3,8-diazabicyclo[3.2.1]octan-3-yl)-5-fluoro-3-(((2R,7aS)-2-fluorotetrahydro-1H-pyrrolizin-7a(5H)-yl)methoxy)-8-methylfuro[3,2-n]quinazolin-6-yl)-5-ethynyl-6-fluoronaphthalen-2-ol]
GppNHp-KRAS G12D (ΔTmD, ° C.) [1]: 9.89 °C | pIC50 [2]: 8.15 | GDP-KRAS G12D (ΔTmD, ° C.) [3]: 14.33 °C | pIC50 [4]: 7.92

C#Cc1c(F)ccc2cc(N)cc(-c3c(F)c4nc(OC[C@@]56CCCN5C[C@H](F)C6)nc(N5C[C@H]6CC[C@@H](C5)N6)c4c4cc(C)oc34)c12 [Example 57, 4-(1-((1R,5S)-3,8-diazabicyclo[3.2.1]octan-3-yl)-5-fluoro-3-(((2R,7aS)-2-fluorotetrahydro-1H-pyrrolizin-7a(5H)-yl)methoxy)-8-methylfuro[3,2-f]quinazolin-6-yl)-5-ethynyl-6-fluoronaphthalen-2-amine]
GppNHp-KRAS G12D (ΔTmD, ° C.) [1]: 5.76 °C | pIC50 [2]: 7.00 | GDP-KRAS G12D (ΔTmD, ° C.) [3]: 8.57 °C | pIC50 [4]: 6.78

C#Cc1c(F)ccc2cc(O)cc(-c3c(F)c4nc(OCC5(CN6CCC7(CC6)CC7(F)F)CC5)nc(N5C[C@H]6CC[C@@H](C5)N6)c4c4cc(C)oc34)c12 [Example 59, 4-(1-((1R,5S)-3,8-diazabicyclo[3.2.1]octan-3-yl)-3-((1-((1,1-difluoro-6-azaspiro[2.5]octan-6-yl)methyl)cyclopropyl)methoxy)-5-fluoro-8-methylfuro[3,2-n]quinazolin-6-yl)-5-ethynyl-6-fluoronaphthalen-2-ol]
GppNHp-KRAS G12D (ΔTmD, ° C.) [1]: 6.06 °C | pIC50 [2]: 7.16 | GDP-KRAS G12D (ΔTmD, ° C.) [3]: 12.88 °C | pIC50 [4]: 7.27

C#Cc1c(F)ccc2cc(O)cc(-c3c(F)c4nc(OC[C@]56CC(=C)CN5C[C@@H](F)C6)nc(N5C[C@H]6CC[C@@H](C5)N6)c4c4cc(C)oc34)c12 [Example 65, 4-(1-((1R,5S)-3,8-diazabicyclo[3.2.1]octan-3-yl)-5-fluoro-3-(((2S,7aR)-2-fluoro-6-methylenetetrahydro-1H-pyrrolizin-7a(5H)-yl)methoxy)-8-methylfuro[3,2-f]quinazolin-6-yl)-5-ethynyl-6-fluoronaphthalen-2-ol]
GppNHp-KRAS G12D (ΔTmD, ° C.) [1]: 8.60 °C | pIC50 [2]: 8.30 | GDP-KRAS G12D (ΔTmD, ° C.) [3]: 14.23 °C | pIC50 [4]: 8.40

C#Cc1c(F)ccc2cc(O)cc(-c3cc4nc(OC[C@@]56CCCN5C[C@H](F)C6)nc(N5C[C@H]6CC[C@@H](C5)N6)c4c4cn(C)nc34)c12 [Example 69, 4-(9-((1R,5S)-3,8-diazabicyclo[3.2.1]octan-3-yl)-7-(((2R,7aS)-2-fluorotetrahydro-1H-pyrrolizin-7a(5H)-yl)methoxy)-2-methyl-2H-pyrazolo[4,3-f]quinazolin-4-yl)-5-ethynyl-6-fluoronaphthalen-2-ol]
GppNHp-KRAS G12D (ΔTmD, ° C.) [1]: 7.24 °C | pIC50 [2]: 6.72 | GDP-KRAS G12D (ΔTmD, ° C.) [3]: 11.68 °C | pIC50 [4]: 6.77

C#Cc1c(F)ccc2cc(O)cc(-c3cc4nc(OCC5(CN6CCC7(CC6)CC7(F)F)CC5)nc(N5C[C@H]6CC[C@@H](C5)N6)c4c4cn(C)nc34)c12 [Example 73, 4-(9-((1R,5S)-3,8-diazabicyclo[3.2.1]octan-3-yl)-7-((1-((1,1-difluoro-6-azaspiro[2.5]octan-6-yl)methyl)cyclopropyl)methoxy)-2-methyl-2H-pyrazolo[4,3-f]quinazolin-4-yl)-5-ethynyl-6-fluoronaphthalen-2-ol]
GppNHp-KRAS G12D (ΔTmD, ° C.) [1]: 5.60 °C | pIC50 [2]: 7.43 | GDP-KRAS G12D (ΔTmD, ° C.) [3]: 11.97 °C | pIC50 [4]: 7.31

C#Cc1c(F)ccc2cc(N)cc(-c3cc4nc(OC[C@@]56CCCN5C/C(=C\F)C6)nc(N5C[C@H]6CC[C@@H](C5)N6)c4c4cn(C)nc34)c12 [Example 74, 4-(9-((1R,5S)-3,8-diazabicyclo[3.2.1]octan-3-yl)-7-(((S,Z)-2-(fluoromethylene)tetrahydro-1H-pyrrolizin-7a(5H)-yl)methoxy)-2-methyl-2H-pyrazolo[4,3-f]quinazolin-4-yl)-5-ethynyl-6-fluoronaphthalen-2-amine]
GppNHp-KRAS G12D (ΔTmD, ° C.) [1]: 5.30 °C | pIC50 [2]: 6.96 | GDP-KRAS G12D (ΔTmD, ° C.) [3]: 7.82 °C | pIC50 [4]: 6.84

C#Cc1c(F)ccc2cc(O)cc(-c3cc4nc(OC[C@@]56CCCN5C/C(=C\F)C6)nc(N5C[C@H]6CC[C@@H](C5)N6)c4c4cn(C)nc34)c12 [Example 75, 4-(9-((1 R,5S)-3,8-diazabicyclo[3.2.1]octan-3-yl)-7-(((S,Z)-2-(fluoromethylene)tetrahydro-1H-pyrrolizin-7a(5H)-yl)methoxy)-2-methyl-2H-pyrazolo[4,3-f]quinazolin-4-yl)-5-ethynyl-6-fluoronaphthalen-2-ol]
GppNHp-KRAS G12D (ΔTmD, ° C.) [1]: 9.60 °C | pIC50 [2]: 7.47 | GDP-KRAS G12D (ΔTmD, ° C.) [3]: 13.74 °C | pIC50 [4]: 7.70

Reference: patent US20260209249A1, “NOVEL TRICYCLIC COMPOUND AS KRAS G12D INHIBITOR, AND USE THEREOF” (SK Biopharmaceuticals Co., priority 2022, published 2026)
